This test addresses T1, renin (Homo sapiens, UniProt P00797).
T1 construct: Lyophilized human plasma with 0.1% EDTA is obtained from New England Nuclear; tissue New England Nuclear Plasma Renin Activity Control; host or cells: human plasma (lyophilized, reconstituted)
T1 sequence (P00797 67-406): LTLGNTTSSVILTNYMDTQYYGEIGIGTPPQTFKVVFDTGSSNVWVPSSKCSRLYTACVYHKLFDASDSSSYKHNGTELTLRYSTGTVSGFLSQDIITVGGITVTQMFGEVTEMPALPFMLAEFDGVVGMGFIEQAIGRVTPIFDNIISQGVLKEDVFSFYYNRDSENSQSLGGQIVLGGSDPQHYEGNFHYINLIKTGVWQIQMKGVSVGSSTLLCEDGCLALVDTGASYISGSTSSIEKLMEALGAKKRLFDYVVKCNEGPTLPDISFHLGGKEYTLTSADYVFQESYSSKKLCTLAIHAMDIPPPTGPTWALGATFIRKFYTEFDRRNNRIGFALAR
As to the kind of experiment: GAMMACOAT plasma renin activity (PRA) radioimmunoassay, inhibition of angiotensin I generation in reconstituted human plasma. It counts as biochemical. The conditions noted are these: I50 of RIP compared with I50 of the compound, RIP value of the same assay day. As for the experimental part:
Lyophilized human plasma with 0.1% EDTA is obtained from New England Nuclear, North Billerica, Massachusetts 01862 as "Plasma Renin Activity Control". This lyophilized plasma is reconstituted, on the day of the assay, with cold sterile distilled water according to directions on the vial. The plasma renin activity (PRA) of the reconstituted plasma is assayed with "GAMMACOAT [^125 Plasma Renin Activity Radioimmunoassay Kit" supplied by Clinical Assays, a Division of Travenol Laboratories, Inc., Cambridge, Massachusetts 02139. The procedure used with these kits is carried out essentially as described in the literature which accompanies them. […]
In the case of renin inhibitory peptide (RIP), […] of the 4°C. blank is added to a GAMMACOAT® tube. […] The tubes are then counted in a gamma counter. The results of the RIP are evaluated with the Rodbard Radioimmunoassay Program and the plasma renin activity (PRA) is expressed as […]. […] In addition to l50 values, relative potencies are also calculated. A relative potency is determined by comparing the 150 of RIP to the l50 of the compound. However, it must be emphasized that relative potencies are calculated from the l50 obtained for RIP on the day the compound is assayed and not from the average 15o for RIP.

Compound `CC[C@H](C)[C@H](NC(=O)C(F)(F)C(=O)C(CC(C)C)NC(=O)[C@H](Cc1c[nH]cn1)NC(=O)[C@H](Cc1ccccc1)NC(=O)OC(C)(C)C)C(=O)NCc1ccccn1` (stereo partly drawn) [N-tert-Butyloxycarbonyl-L-phenylalanyl-L-histidyl-2,2-difluoro-statonyl-L-isoleucyl-2-pyridylmethylamide] showed a relative potency of 6100.

Consider `CC[C@H](C)[C@H](NC(=O)C(F)(F)[C@H](O)[C@H](CC(C)C)NC(=O)[C@H](Cc1c[nH]cn1)NC(=O)[C@H](Cc1ccccc1)NC(=O)OC(C)(C)C)C(=O)NCc1ccccn1` [N-tert-Butyloxycarbonyl-L-phenylalanyl-L-histidyl-2,2-difluoro-statyl-L-isoleucyl-2-pyridylmethylamide], for which the relative potency is 1,000.

The values are drawn from patent publication EP0218688B1, “DIHALO-STATINE SUBSTITUTED RENIN INHIBITORS” (THE UPJOHN COMPANY, priority 1985, dated 1986).
